Calls of active or inactive are those of the source.
Assays:
[1] = A cytotoxicity screen of small molecule inhibitors of the PhoP region in Salmonella typhi identified in the primary screen. [Related pubchem assays: 1850, 1864, 1985 ]; assay type: functional
Cytochrome P450 3A4 = Cytochrome P450 3A4 (Homo sapiens, UniProt P08684);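 also: CYP3A4 tested as one member of a cytochrome P450 panel screen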
Cytochrome P450 2C19 = Cytochrome P450 2C19 (Homo sapiens, UniProt P33261); assay: Cytochrome panel assay with activity outcomes. Panel member name: p450-cyp2c19 Compounds with AC50 equal or less than 10 uM are considered active; assay type: functional; settings: read-out: AC50
Cytochrome P450 2C19, sequence (P33261 whole entry): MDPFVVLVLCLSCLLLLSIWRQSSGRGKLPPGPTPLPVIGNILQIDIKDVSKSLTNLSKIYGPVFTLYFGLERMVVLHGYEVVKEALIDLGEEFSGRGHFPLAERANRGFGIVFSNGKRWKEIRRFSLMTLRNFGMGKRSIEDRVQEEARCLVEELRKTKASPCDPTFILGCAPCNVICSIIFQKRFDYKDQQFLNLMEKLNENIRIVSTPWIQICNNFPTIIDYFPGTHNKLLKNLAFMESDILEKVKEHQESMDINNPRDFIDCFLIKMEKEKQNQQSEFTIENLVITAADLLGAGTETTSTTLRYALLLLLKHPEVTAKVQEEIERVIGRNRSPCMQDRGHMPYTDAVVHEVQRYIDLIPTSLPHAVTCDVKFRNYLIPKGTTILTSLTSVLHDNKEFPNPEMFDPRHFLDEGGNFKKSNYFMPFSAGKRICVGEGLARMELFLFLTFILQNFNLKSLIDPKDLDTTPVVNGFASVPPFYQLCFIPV

Cytochrome P450 2C9 = Cytochrome P450 2C9 (Homo sapiens, UniProt P11712)
Cytochrome P450 2C9, sequence (P11712 whole entry): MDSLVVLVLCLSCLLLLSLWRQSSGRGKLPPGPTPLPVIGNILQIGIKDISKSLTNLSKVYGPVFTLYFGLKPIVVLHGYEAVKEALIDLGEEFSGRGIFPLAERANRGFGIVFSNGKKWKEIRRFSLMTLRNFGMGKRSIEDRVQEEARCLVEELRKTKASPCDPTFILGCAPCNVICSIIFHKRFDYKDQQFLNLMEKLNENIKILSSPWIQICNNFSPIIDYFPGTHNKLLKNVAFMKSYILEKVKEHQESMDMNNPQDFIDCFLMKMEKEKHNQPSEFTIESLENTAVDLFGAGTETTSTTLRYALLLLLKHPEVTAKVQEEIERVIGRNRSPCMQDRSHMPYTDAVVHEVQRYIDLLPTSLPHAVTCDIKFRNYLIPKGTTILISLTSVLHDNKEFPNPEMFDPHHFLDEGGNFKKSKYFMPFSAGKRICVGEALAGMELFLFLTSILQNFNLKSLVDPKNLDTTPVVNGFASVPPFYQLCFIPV

[2] = biological target: FAD-linked sulfhydryl oxidase ALR (Homo sapiens, UniProt P55789); assay: ALR-catalysed DTT oxidation blockers – biochemical, H2O2 detection, luminescence, cherry-pick, dose response (AID 493248)
FAD-linked sulfhydryl oxidase ALR, sequence (P55789 whole entry): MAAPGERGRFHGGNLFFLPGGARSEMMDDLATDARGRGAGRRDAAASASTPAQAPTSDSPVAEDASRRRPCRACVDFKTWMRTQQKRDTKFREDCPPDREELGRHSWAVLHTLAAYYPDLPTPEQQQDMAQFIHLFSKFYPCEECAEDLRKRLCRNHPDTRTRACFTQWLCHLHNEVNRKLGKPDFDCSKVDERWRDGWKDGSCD

H4 = assay: Luminescence Cell-Based Dose Response HTS to Identify Activators of 5'UTR Stem-Loop Driven Prion Protein mRNA Translation in H4 Neuroglioblastoma Cells. [Related pubchem assays: 1829 (Project Summary), 1814 (Primary HTS)]; assay type: functional; settings: Homo sapiens
[3] = Luminescence Cell-Based Dose Response HTS to Identify Activators of Luciferase Translation or Activity in H4 […] Cells. [Related pubchem assays: 1829 (Project Summary), 1814 (Primary HTS)]; assay type: functional
[4] = Luminescence Cell-Based Dose Confirmation HTS to Identify Activators of 5'UTR Stem-Loop Driven Alpha-Synuclein mRNA Translation in H4 Neuroglioblastoma Cells. [Related pubchem assays: 1829 (Project Summary), 1814 (Primary HTS)]; assay type: functional
Caspase-6 = biological target: T1, Caspase-6 (Homo sapiens, UniProt P55212); assay: inhibition of CASP6 peptide cleavage – biochemical, VEID-R110 fluorescence, cherry-pick, dose response (AID 720632)
T1 sequence (P55212 whole entry): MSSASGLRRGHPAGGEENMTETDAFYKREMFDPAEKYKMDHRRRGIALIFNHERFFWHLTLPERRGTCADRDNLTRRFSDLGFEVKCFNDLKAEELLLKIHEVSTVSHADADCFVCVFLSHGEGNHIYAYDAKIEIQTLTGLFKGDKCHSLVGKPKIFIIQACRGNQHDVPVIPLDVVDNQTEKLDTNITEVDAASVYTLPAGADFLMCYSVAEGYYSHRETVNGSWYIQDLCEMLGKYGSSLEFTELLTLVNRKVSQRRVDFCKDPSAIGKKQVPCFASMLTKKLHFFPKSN

Large T antigen = Large T antigen (Simian virus 40, UniProt P03070); assay type: functional, Betapolyomavirus macacae;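 also: Confirmatory-stage PubChem screen for compounds that inhibit SV40 T antigen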
Large T antigen, sequence (P03070 whole entry): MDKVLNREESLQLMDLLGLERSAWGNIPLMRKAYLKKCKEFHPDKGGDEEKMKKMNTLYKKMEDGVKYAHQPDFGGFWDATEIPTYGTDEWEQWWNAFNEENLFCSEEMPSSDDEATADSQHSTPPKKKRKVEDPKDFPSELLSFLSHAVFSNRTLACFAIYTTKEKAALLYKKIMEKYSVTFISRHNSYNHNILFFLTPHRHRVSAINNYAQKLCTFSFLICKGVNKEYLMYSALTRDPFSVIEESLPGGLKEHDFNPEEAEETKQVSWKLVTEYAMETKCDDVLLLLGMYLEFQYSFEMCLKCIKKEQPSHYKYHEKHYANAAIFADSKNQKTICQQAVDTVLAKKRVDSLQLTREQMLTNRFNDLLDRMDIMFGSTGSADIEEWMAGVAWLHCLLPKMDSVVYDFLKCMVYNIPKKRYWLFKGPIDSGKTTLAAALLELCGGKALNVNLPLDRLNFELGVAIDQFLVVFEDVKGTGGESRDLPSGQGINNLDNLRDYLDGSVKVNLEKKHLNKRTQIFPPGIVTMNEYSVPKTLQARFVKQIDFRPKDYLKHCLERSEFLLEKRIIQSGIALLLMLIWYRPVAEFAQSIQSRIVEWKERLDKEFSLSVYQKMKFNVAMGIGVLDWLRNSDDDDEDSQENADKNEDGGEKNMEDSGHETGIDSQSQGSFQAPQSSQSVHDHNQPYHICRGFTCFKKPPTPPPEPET

Protein RecA = biological target: T2, Protein RecA (Mycobacterium tuberculosis, UniProt P9WHJ3); assay: Fluorescence Cell-Free Homogeneous Dose Retest to Identify Inhibitors of RecA-Intein Splicing Activity. [Related pubchem assays (depositor defined):AID2097, AID2223, AID489010, AID492950]; assay type: functional
T2 sequence (P9WHJ3 whole entry): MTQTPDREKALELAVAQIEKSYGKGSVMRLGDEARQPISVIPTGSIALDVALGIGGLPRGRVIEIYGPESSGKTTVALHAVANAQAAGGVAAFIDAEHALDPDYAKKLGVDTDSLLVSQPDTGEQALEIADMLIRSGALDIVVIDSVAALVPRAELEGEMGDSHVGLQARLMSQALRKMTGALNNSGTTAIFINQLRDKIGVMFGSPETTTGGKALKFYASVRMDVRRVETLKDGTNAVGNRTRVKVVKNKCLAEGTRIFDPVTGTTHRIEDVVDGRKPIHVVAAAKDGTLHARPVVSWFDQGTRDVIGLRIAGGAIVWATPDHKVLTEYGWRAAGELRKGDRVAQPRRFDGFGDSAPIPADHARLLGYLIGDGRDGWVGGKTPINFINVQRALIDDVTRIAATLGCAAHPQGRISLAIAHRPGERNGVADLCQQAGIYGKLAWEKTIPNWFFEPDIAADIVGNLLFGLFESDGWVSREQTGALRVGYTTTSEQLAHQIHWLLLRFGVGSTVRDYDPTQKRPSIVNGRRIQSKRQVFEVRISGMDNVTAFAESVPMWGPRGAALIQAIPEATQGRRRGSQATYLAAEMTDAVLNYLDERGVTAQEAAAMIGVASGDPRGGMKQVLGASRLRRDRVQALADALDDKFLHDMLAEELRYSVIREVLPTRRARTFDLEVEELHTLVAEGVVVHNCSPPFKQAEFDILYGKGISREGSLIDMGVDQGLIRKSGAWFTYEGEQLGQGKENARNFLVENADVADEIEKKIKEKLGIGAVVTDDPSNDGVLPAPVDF

[5] = biological target: T3, Replicative DNA helicase DnaB (Mycobacterium tuberculosis, UniProt P9WMR3); assay: DnaB intein splicing inhibitors, dose response, biochemical, cell-free fluorescence (AID 449749); assay type: functional
T3 sequence (P9WMR3 whole entry): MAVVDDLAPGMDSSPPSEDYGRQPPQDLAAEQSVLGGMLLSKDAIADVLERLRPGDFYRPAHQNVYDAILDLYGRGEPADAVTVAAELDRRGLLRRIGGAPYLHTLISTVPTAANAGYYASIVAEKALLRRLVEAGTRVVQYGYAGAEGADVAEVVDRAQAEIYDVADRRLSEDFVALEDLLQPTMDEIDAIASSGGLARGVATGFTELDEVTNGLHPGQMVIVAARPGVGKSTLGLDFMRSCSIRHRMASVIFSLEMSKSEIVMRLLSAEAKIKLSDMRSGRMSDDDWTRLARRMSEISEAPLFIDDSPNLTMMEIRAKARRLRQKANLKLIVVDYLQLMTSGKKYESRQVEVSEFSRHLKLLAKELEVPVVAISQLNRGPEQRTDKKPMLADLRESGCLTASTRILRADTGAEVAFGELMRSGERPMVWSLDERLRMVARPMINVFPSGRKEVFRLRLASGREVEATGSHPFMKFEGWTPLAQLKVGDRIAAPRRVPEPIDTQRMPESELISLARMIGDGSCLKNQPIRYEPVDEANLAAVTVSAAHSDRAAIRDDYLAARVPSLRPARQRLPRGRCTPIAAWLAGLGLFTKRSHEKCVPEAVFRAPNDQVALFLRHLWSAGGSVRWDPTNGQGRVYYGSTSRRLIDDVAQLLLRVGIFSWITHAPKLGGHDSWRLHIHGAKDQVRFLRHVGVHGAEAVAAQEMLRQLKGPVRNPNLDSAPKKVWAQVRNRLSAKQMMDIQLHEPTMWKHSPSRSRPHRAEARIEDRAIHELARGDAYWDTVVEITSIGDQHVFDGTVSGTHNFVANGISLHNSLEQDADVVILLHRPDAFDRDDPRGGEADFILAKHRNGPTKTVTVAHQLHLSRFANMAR

[6] = biological target: T4, Rac GTPase-activating protein 1 (Homo sapiens, UniProt Q9H0H5); assay: blockers of MgcRacGAP-driven Rac1 GTP hydrolysis – biochemical, ADP Hunter fluorescence, primary and confirmatory, confirmation (AID 624330); assay type: functional
T4 sequence (Q9H0H5 whole entry): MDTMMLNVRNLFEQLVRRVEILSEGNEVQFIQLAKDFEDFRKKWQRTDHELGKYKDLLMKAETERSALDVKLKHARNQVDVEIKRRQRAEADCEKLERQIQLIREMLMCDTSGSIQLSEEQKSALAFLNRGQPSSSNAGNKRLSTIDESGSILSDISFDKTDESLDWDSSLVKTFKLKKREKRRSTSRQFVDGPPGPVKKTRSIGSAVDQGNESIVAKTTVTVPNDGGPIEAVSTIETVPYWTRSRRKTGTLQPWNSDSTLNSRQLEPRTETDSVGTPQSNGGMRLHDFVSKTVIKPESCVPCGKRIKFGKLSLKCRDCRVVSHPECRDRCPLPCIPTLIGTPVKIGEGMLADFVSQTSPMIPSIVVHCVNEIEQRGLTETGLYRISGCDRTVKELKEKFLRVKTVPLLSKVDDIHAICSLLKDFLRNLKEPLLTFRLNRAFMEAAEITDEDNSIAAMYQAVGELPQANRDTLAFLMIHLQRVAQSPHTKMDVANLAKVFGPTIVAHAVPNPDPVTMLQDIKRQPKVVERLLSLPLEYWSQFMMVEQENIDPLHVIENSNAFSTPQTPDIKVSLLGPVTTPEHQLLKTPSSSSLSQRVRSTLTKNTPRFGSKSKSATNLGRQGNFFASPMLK

H9c2 = assay: cells; assay type: functional, cell-based; settings: Rattus norvegicus, H9c2, Myocardium;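 also: confirmatory concentration-response retest of ultra-high-throughput screening hits for modulation of myocardial damage; cell death induced by hydrogen peroxide oxidative stress; compound pretreatment for 60 min then peroxide exposure for 2 h; potency is for protecting the cells against peroxide damage rather than for killing them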
[7] = intracellular Trypanosoma cruzi inhibitors in host cells – cell-based, plate reader, cherry-pick samples, set 3, dose response (AID 651818); assay type: functional;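 also: compounds incubated with infected cells for about four days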

Cytochrome P450 3A4, sequence (P08684 whole entry): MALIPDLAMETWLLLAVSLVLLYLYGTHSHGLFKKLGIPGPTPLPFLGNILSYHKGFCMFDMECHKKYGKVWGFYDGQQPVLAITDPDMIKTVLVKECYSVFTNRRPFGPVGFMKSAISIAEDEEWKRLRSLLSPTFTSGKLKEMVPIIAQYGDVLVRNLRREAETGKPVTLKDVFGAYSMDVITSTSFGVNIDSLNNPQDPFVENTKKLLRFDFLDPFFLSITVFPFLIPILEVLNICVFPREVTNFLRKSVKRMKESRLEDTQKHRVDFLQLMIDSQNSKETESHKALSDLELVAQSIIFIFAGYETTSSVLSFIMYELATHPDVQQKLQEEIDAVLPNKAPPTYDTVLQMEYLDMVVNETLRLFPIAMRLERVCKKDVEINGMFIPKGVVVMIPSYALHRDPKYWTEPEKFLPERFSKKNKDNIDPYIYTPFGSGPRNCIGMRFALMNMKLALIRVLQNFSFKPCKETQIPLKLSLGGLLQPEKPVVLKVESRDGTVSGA

SMILES: Nc1[nH]cnc2nc(SCC(=O)Nc3cccc(C(F)(F)F)c3)nc1-2
- EC50 [1]: > 50 µM (active)

SMILES: Cc1c(Cl)cccc1NC(=O)C[C@H]1Sc2ccccc2NC1=O
- AC50 (Cytochrome P450 3A4): 3.98 µM (inconclusive)
- AC50 (Cytochrome P450 2C19): 3.16 µM (inconclusive)
- AC50 (Cytochrome P450 2C9): inconclusive

SMILES: O=C(/C=C\c1ccc(O)c(O)c1)O[C@@H]1C[C@](O)(C(=O)O)C[C@@H](O)[C@@H]1O
- AC50 (Cytochrome P450 2C9): inconclusive

SMILES: O=Cc1ccc(N2CCCCCC2)cc1
- EC50 [1]: > 50 µM (active)

SMILES: CCOC(=O)c1nc2cc3n(c(CC(C)C)c-2c1C)CC(C)=C3C
- EC50 [1]: > 50 µM (active)

SMILES: CCOc1c2ccc(C(=O)NC3CCCc4ccccc43)cc2nn1C (configuration not stated)
- AC50 (Cytochrome P450 2C9): inconclusive

SMILES: Cc1ccc(C(=O)c2cn(-c3ccc(F)c(Cl)c3)nn2)cc1
- AC50 (Cytochrome P450 2C9): inconclusive

SMILES: NC(=O)CN1N=C(c2cc(Cl)sc2Cl)CSC1=O
- EC50 [1]: > 50 µM (active)

SMILES: CCN1C(=O)C(O)(C2COC(C)(C)CC2=O)c2ccccc21 (configuration not stated)
- AC50 (Cytochrome P450 2C19): 25.1 µM (inconclusive)
- AC50 (Cytochrome P450 2C9): inconclusive

SMILES: CC1CC(C)CN(S(=O)(=O)c2cccc3cccnc23)C1 (configuration not stated)
- EC50 [1]: > 50 µM (active)
- AC50 [2]: 17.4 µM (active)

SMILES: COc1cccc(C(=O)Nc2ccc(N3CCN(C(=O)c4ccco4)CC3)cc2)c1
- EC50 (H4): > 120 µM (not active)
- EC50 [3]: 8.46 µM (active)
- EC50 [4]: > 120 µM (not active)

SMILES: CC(Oc1ccc(F)cc1)C(=O)Nc1cccc(-c2nn[nH]n2)c1 (configuration not stated)
- AC50 (Caspase-6): 32.6 µM (active)

SMILES: COc1ccc(/C=C(/C#N)C(=O)Nc2ccc(O)cc2)cc1C(=O)O
- IC50 (Large T antigen): 36.9 µM (active)
- EC50 (Protein RecA): 8.43 µM (active)
- AC50 [5]: 32.1 µM (active)

SMILES: COc1ccc2c(C(=O)CN(C)C3CCCCC3)c[nH]c2c1
- EC50 [1]: > 50 µM (active)

SMILES: CCOC(=O)N1CCN(C(=O)CNCc2cccs2)CC1.O=C(O)C(=O)O
- AC50 (Cytochrome P450 2C9): inconclusive

SMILES: Oc1cc(-c2ccc(Br)cc2)[nH]n1
- IC50 (Large T antigen): 53.9 µM (active)
- EC50 (Protein RecA): 0.718 µM (active)
- AC50 [5]: 3.06 µM (active)

SMILES: COc1cc(C(=O)OCC(=O)Nc2cc(C)on2)ccc1OCc1ccccc1Cl
- EC50 (H4): 20.6 µM (active)
- EC50 [3]: 4.54 µM (active)
- EC50 [4]: 7.95 µM (active)

SMILES: Cn1c(-c2ccc(-c3ccccc3)cc2)cnc1S
- EC50 (H4): 15.6 µM (active)
- EC50 [3]: 7.75 µM (active)
- EC50 [4]: 7.14 µM (active)

SMILES: O=C(Nc1ccccc1)O[C@@H]1C[C@H]2CCC(=O)N3CC[C@@H](C1)[C@@H]23
- EC50 (H4): 53.9 µM (active)
- EC50 [3]: 40.9 µM (active)
- EC50 [4]: 0.39 µM (active)

SMILES: CCN(CC)c1ccc(NC(=O)COC(=O)COc2ccccc2[N+](=O)[O-])cc1
- IC50 (Large T antigen): 10.4 µM (active)

SMILES: CN(C)c1ccc(NC(S)=NCC2CCCO2)cc1 (configuration not stated)
- IC50 [6]: 85.6 µM (active)
- IC50 (Large T antigen): 14.3 µM (active)

SMILES: CN1C(=O)/C(=C(/C#N)c2nc3ccccc3[nH]2)c2ccccc21
- AC50 (Cytochrome P450 2C19): 11.2 µM (inconclusive)
- AC50 (Cytochrome P450 2C9): inconclusive

SMILES: COc1cc(C(=O)N/N=C/c2ccc(OC(=O)c3cccc(C)c3)c(OC)c2)ccc1O
- EC50 [1]: > 50 µM (active)
- IC50 (H9c2): > 79 µM (inactive)

SMILES: C[C@@H]1CN([C@H](C)CO)C(=O)Cc2cc(NC(=O)Nc3cccc4ccccc34)ccc2O[C@H]1CN(C)Cc1ccccc1
- AC50 [7]: 6.25 µM (active)

SMILES: C[C@@H]1CN([C@H](C)CO)C(=O)Cc2cc(NC(=O)CCC(F)(F)F)ccc2O[C@@H]1CN(C)Cc1ccc(Oc2ccccc2)cc1
- AC50 [7]: 2.81 µM (active)

SMILES: C[C@@H]1CN([C@@H](C)CO)C(=O)c2cccc(NC(=O)CCCCCC(=O)Nc3ccccc3N)c2O[C@H]1CN(C)CC1CC1
- AC50 [7]: 4.62 µM (active)

SMILES: C[C@@H]1CCCCO[C@@H](CN(C)Cc2ccc(C(F)(F)F)cc2)[C@@H](C)CN([C@H](C)CO)C(=O)c2cc(NC(=O)Nc3ccccc3)ccc2O1
- AC50 [7]: 5.35 µM (active)

SMILES: C[C@@H]1CCCCO[C@@H](CN(C)C(=O)Nc2ccc(C(F)(F)F)cc2)[C@@H](C)CN([C@H](C)CO)C(=O)c2cc(NC(=O)Nc3ccc4c(c3)OCO4)ccc2O1
- AC50 [7]: 4.09 µM (active)

SMILES: C[C@@H]1CCCCO[C@@H](CN(C)C(=O)c2ccccc2)[C@@H](C)CN([C@H](C)CO)C(=O)c2cc(NC(=O)Nc3ccc(C(F)(F)F)cc3)ccc2O1
- AC50 [7]: 6.48 µM (active)

SMILES: C[C@@H]1CN([C@H](C)CO)C(=O)Cc2cc(NS(=O)(=O)c3ccc(F)cc3)ccc2O[C@H]1CN(C)Cc1ccc(Cl)c(Cl)c1
- AC50 [7]: 2.26 µM (active)

SMILES: Clc1ccc(CN2CCN(/N=C/c3ccco3)CC2)cc1
- EC50 [1]: > 50 µM (active)

SMILES: C/C(=N\NC(=O)c1cc(O)ccc1O)c1cccc(NC(=O)c2cccc(Cl)c2)c1
- AC50 (Caspase-6): 1.18 µM (active)

SMILES: CC[C@H](CO)NCCN[C@@H](CC)CO
- AC50 (Cytochrome P450 2C9): inconclusive

Source: ChEMBL document CHEMBL1201862, “PubChem BioAssay data set” (2004)
